In PMC3328416 (2012):

Molecular target: T1, glutathione peroxidase 1 (GPx-1) (Bos taurus, UniProt P00435)
T1 sequence (P00435 1-205): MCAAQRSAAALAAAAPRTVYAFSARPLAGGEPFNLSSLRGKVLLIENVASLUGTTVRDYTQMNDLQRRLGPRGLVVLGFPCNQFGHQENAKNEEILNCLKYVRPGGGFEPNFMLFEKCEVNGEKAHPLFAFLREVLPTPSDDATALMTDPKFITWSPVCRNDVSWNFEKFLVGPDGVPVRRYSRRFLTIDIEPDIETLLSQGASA
Assay: immobilized enzyme inactivation, GR-coupled NADPH assay at […] nm after wash-out
Format: biochemical

CCN1C(=O)C=CC1=O [NEM, N-ethylmaleimide]
IC50: 8.77 mM
